For data set [1] the following is noted: cited from earlier work.
Data set [2] concerns Escherichia coli (ATCC 8739). Description: Modified JIS Z2801, increased inoculum, Quat-containing matte wall paint. It counts as cell-based. Particulars: Quat 5200 ppm, Cu 0 ppm in matte wall paint. Here is the method: (§1) The antibacterial efficacies of copper-containing composition in dry paint film were evaluated using a modified JIS Z2801 method (Antimicrobial Product-Test for Antimicrobial Activity and Efficacy: 2000) by reducing contact time from 24 hour to 2 hour, including Pseudomonas aeruginosa as an additional bacteria and increasing inoculum strength to 5.0 to 10.0×10^7 cfm/mL. […] The paints were brushed onto the sterilized plastic filter paper. Each side of the filter paper was painted twice and the resulting coated paper was dried at ambient condition for 3 days. The dried coatings were then leached against 10 L water for 24 hours (4 water changes for the first 8 hour). Each of three (3) bacterial inoculum (0.4 mL): Escherichia coli (ATCC 8739), Staphylococcus aureus (ATCC 6538), Pseudomonas aeruginosa (ATCC 15442) was used to inoculate the dry film (40 mm×40 mm) of test paint to achieve 5.0 to 10.0×10^7 cfm/mL of inoculum concentration per each bacteria on dry surface of each test paint. The test paints were incubated at 35±1° C. and 90% RH for 2 hour. The degrees of bacterial contamination were determined relative to blank paint via viable cell count of bacteria by agar plate culture method.

Data set [3] concerns Pseudomonas aeruginosa (ATCC 15442). The description is as above. It counts as cell-based. The conditions noted are these: Quat 5200 ppm, Cu 0 ppm in matte wall paint. Here is the method: as §1
For data set [4], the system named is Staphylococcus aureus (ATCC 6538). Described as above. In kind it is cell-based. Particulars: Quat 5200 ppm, Cu 0 ppm in matte wall paint. How it is done: as §1
Data set [5] concerns Pseudomonas aeruginosa (ATCC 15442). Description: Interim EPA method with dry and chemical abrasion, Quat-containing matte wall paint. In kind it is cell-based. The conditions noted are these: Quat 5200 ppm, Cu 0 ppm; for 2 hr Contact Time % ↓ / 2 hr Contact Time Log10 ↓: relative to uncoated substrate. Here is the method: (§2) The antibacterial efficacies of copper-containing composition in dry paint film were evaluated using an interim EPA method (Interim Method for Evaluating the Efficacy of Antimicrobial Surface Coatings: Oct. 2, 2020). […] The paints were drawn-down onto the sterilized steel substrate (1 inch by 1 inch of AISI type 304 stainless steel). The resulting coated substrate was dried at ambient condition for at least 24 hours. Some of the dried coated substrates were further subject to dry and chemical abrasion for 1 week residual efficacy claim. As for dry abrasion, the coated substrate was exposed to 10 cycles of dry abrasion by a Scotch Brite Non-Scratch Scrub Sponge using a BYK Gardner-Scrub machine, each of which comprises 16 single passes. As for chemical abrasion, the scrub sponge was soaked in sodium hypochlorite (2000 ppm NaOCl) solution and EPA-registered Quat-containing Nugen™ MB^5N-256 (256× dilution) disinfectant prior to the abrasion. The coated substrate was exposed to 10 cycles of chemical abrasion by the soaked scrub sponge, each of which comprises 8 single passes. After rinsing and drying to remove the residual NaOCl and Quat, each of two (2) bacterial inoculum ([…]): Staphylococcus aureus (ATCC 6538) and Pseudomonas aeruginosa (ATCC 15442) was used to inoculate the dry film of test paint to achieve 10^4 to 10^5 cfm/carrier of bacteria on dry surface of each test paint. The test paints were incubated at 22° C. and 30-40% RH for 2 hours. The degrees of bacterial contamination were determined via viable cell count for antibacterial efficacy relative to the uncoated substrate.

Data set [6] deals with Staphylococcus aureus (ATCC 6538). The data set is described as above. In kind it is cell-based. Particulars: Quat 5200 ppm, Cu 0 ppm; for 2 hr Contact Time % ↓ / 2 hr Contact Time Log10 ↓: relative to uncoated substrate. How it is done:
as §2

Usually solubility stands for the concentration that dissolves in the medium under given conditions. For `On1ccccc1=S.On1ccccc1=S.[Cu]` [copper pyrithione], the solubility in data set [1] is 0.03 µg/mL.
In the case of “alkyl (50% C14, 10% C16, 40% C12) dimethyl benzyl ammonium chloride [Quat]”, the “2 hr Contact Time Avg” value in data set [2] is given as 1.4E+02; in data set [3] it was 2.9E+05; in data set [4], less than 1.5E+02; in data set [5] (Dry Abraded) it was 1.0E+2; in data set [5] (NaOCl Abraded), 1.4E+0; in data set [5] (Quat Abraded) it was 1.1E+2. In addition, the “2 hr Contact Time Avg” value is 1.7E+3 in data set [5] (Unexposed), 1.0E+0 in data set [6] (Dry Abraded), 1.0E+0 in data set [6] (NaOCl Abraded) and 1.0E+0 in data set [6] (Unexposed). In addition, the “2 hr Contact Time Log10” value in data set [2] is 2.16; in data set [3], 5.46; in data set [4], less than 2.19; in data set [5] (Dry Abraded), 2.01; in data set [5] (NaOCl Abraded) it was 0.16; in data set [5] (Quat Abraded), 2.06. For the same compound, the “2 hr Contact Time Log10” value amounted to 3.23 in data set [5] (Unexposed), 0.00 in data set [6] (Dry Abraded), 0.00 in data set [6] (NaOCl Abraded) and 0.00 in data set [6] (Unexposed). The “2 hr Contact Time % ↓” value in data set [5] (Dry Abraded) worked out at 99.6285%; in data set [5] (NaOCl Abraded) it was 99.9994%; in data set [5] (Quat Abraded), 99.5831%; in data set [5] (Unexposed) it was 93.8340%; in data set [6] (Dry Abraded) it was 99.9990%; in data set [6] (NaOCl Abraded), 99.9990%. The “2 hr Contact Time % ↓” value in data set [6] (Unexposed) turned out to be 99.9990%. Also, the “2 hr Contact Time Log10 ↓” value is recorded as 2.43 in data set [5] (Dry Abraded); 4.28 in data set [5] (NaOCl Abraded); 2.38 in data set [5] (Quat Abraded); 1.21 in data set [5] (Unexposed); 5.00 in data set [6] (Dry Abraded); 5.00 in data set [6] (NaOCl Abraded). Further, the “2 hr Contact Time Log10 ↓” value in data set [6] (Unexposed) is listed as 5.00.
